Assay results as given in the supplement of paper PMC11368000.

Assays:
Settings in all cases: exposure time: 90 min
[1] = system: 1535 (donor line of iPSC-derived cardiomyocytes); assay: POD (EC05) for increase in Ca2+ transient decay-to-rise ratio (QT prolongation) vs vehicle; higher = less potent (higher point of departure)
Summary of the method: (§1)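 Points of departure specific to each donor were obtained from hierarchical Bayesian Hill fits to vehicle-normalised beat frequency, decay-to-rise ratio or peak frequency. Thresholds were set at 5% change, or 95% loss in the case of peak frequency. The cells were human iPSC-derived cardiomyocytes from 16 donors, exposed for 90 min at 37 °C to 0.1, 1, 10 and 100 µM (final, 0.5% DMSO), with Ca2+ flux read on a FLIPR Tetra before and after exposure.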

[2] = system: 1518 (donor line of iPSC-derived cardiomyocytes); assay: as above
Summary of the method: as §1

[3] = system: 1531 (donor line of iPSC-derived cardiomyocytes); assay: as above
Summary of the method: as §1

[4] = system: 1392 (donor line of iPSC-derived cardiomyocytes); assay: POD (EC05) for increase in beat frequency (positive chronotrope) vs vehicle; higher = less potent (higher point of departure)
Experimental: (§2)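 Human iPSC-derived cardiomyocytes from 16 donors were exposed for 90 min at 37 °C to each PFAS at 0.1, 1, 10 and 100 µM in 0.5% DMSO, 384-well plates. Kinetic Ca2+ flux (FLIPR) and Hoechst nuclei counts were normalised to vehicle wells and fitted with a hierarchical Bayesian Hill model to give donor-specific PODs: EC05 for beat-rate increase or decrease and for decay-to-rise ratio increase (QT proxy), EC95 for peak-frequency loss (asystole), EC10 for total cell number loss. 0.03 µM is the lower bound.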

[5] = system: 1535; assay: as above
Experimental: as §2

[6] = system: 20032 (donor line of iPSC-derived cardiomyocytes); assay: as above
Experimental: as §2

[7] = system: 1516 (donor line of iPSC-derived cardiomyocytes); assay: as above
Experimental: as §2

[8] = system: 11235 (donor line of iPSC-derived cardiomyocytes); assay: as above
Experimental: as §2

[9] = system: 1518; assay: as above
Experimental: as §2

[10] = system: 30171 (donor line of iPSC-derived cardiomyocytes); assay: as above
Experimental: as §2

[11] = system: 1309 (donor line of iPSC-derived cardiomyocytes); assay: as above
Experimental: as §2

[12] = system: 1531; assay: as above
Experimental: as §2

[13] = system: 1368 (donor line of iPSC-derived cardiomyocytes); assay: as above
Experimental: as §2

[14] = system: 1565 (donor line of iPSC-derived cardiomyocytes); assay: as above
Experimental: as §2

[15] = system: 20084 (donor line of iPSC-derived cardiomyocytes); assay: as above
Experimental: as §2

[16] = system: 1118 (donor line of iPSC-derived cardiomyocytes); assay: as above
Experimental: as §2

[17] = system: 1083 (donor line of iPSC-derived cardiomyocytes); assay: as above
Experimental: as §2

[18] = system: 1434 (donor line of iPSC-derived cardiomyocytes); assay: as above
Experimental: as §2

[19] = system: 1516; assay: POD (EC05) for increase in Ca2+ transient decay-to-rise ratio (QT prolongation) vs vehicle; higher = less potent (higher point of departure)
Summary of the method: as §1

[20] = system: 30145 (donor line of iPSC-derived cardiomyocytes); assay: POD (EC05) for increase in beat frequency (positive chronotrope) vs vehicle; higher = less potent (higher point of departure)
Experimental: as §2

Compound	POD vs vehicle [1]	POD vs vehicle [2]	POD vs vehicle [3]	POD vs vehicle [4]	POD vs vehicle [5]	POD vs vehicle [6]	POD vs vehicle [7]	POD vs vehicle [8]	POD vs vehicle [9]	POD vs vehicle [10]	POD vs vehicle [11]	POD vs vehicle [12]	POD vs vehicle [13]	POD vs vehicle [14]	POD vs vehicle [15]	POD vs vehicle [16]	POD vs vehicle [17]	POD vs vehicle [18]	POD vs vehicle [19]	POD vs vehicle [20]
NC(=O)C(F)(F)C(F)(F)C(F)(F)C(F)F	> 100 µM	0.19 µM	2.04 µM	> 100 µM	> 100 µM	> 100 µM	> 100 µM	> 100 µM	> 100 µM	> 100 µM	> 100 µM	> 100 µM	> 100 µM	> 100 µM	> 100 µM	> 100 µM	> 100 µM	> 100 µM		
OCC(O)CC(F)(F)C(F)(F)C(F)(F)C(F)(F)C(F)(F)C(F)(F)C(F)(F)C(F)(F)F (stereo not given) [1-(Perfluorofluorooctyl)propane-2,3-diol]	> 100 µM	> 100 µM	> 100 µM	> 100 µM	> 100 µM	> 100 µM	0.516 µM	0.231 µM	> 100 µM	0.136 µM	0.394 µM	> 100 µM	> 100 µM	> 100 µM	> 100 µM	3.1 µM	> 100 µM	0.19 µM	> 100 µM	> 100 µM
CC(O)C(F)(F)C(F)(F)F (stereo not given) [1-Pentafluoroethylethanol]	> 100 µM	> 100 µM	> 100 µM	> 100 µM	> 100 µM	> 100 µM	> 100 µM	> 100 µM	> 100 µM	> 100 µM	> 100 µM	> 100 µM	> 100 µM	> 100 µM	> 100 µM	> 100 µM	> 100 µM	> 100 µM	> 100 µM	> 100 µM
O=C(O)C(F)(F)C(F)(F)C(F)F [2,2,3,3,4,4-Hexafluorobutanoic_acid]	> 100 µM		> 100 µM	> 100 µM	> 100 µM	> 100 µM	> 100 µM	> 100 µM	> 100 µM	> 100 µM	> 100 µM	> 100 µM	> 100 µM	> 100 µM	> 100 µM	> 100 µM		> 100 µM		
NC(O)(C(F)(F)F)C(F)(F)F [2-Aminohexafluoropropan-2-ol]	> 100 µM		> 100 µM	> 100 µM	> 100 µM	> 100 µM	> 100 µM	> 100 µM	> 100 µM	> 100 µM	> 100 µM	> 100 µM	> 100 µM	> 100 µM	> 100 µM	> 100 µM	> 100 µM	> 100 µM		
O=C(O)CCC(F)(F)C(F)(F)C(F)(F)C(F)(F)C(F)(F)F [2H,2H,3H,3H-Perfluorooctanoic_acid]	> 100 µM	> 100 µM	17 µM	> 100 µM	> 100 µM	> 100 µM	> 100 µM	> 100 µM	> 100 µM	> 100 µM	> 100 µM	> 100 µM	> 100 µM	> 100 µM	> 100 µM	> 100 µM	> 100 µM	> 100 µM	43.9 µM	> 100 µM
O=C(O)C=C(C(F)(F)F)C(F)(F)F [3,3-Bis(trifluoromethyl)-2-propenoic_acid]	> 100 µM	> 100 µM	> 100 µM	> 100 µM	> 100 µM	> 100 µM	> 100 µM	> 100 µM	> 100 µM	> 100 µM	> 100 µM	> 100 µM	> 100 µM	> 100 µM	> 100 µM	> 100 µM	> 100 µM	> 100 µM	> 100 µM	> 100 µM
O=C(O)CCC(F)(F)C(F)(F)C(F)(F)F [3:3 Fluorotelomer carboxylic acid]	> 100 µM		> 100 µM	> 100 µM	> 100 µM	> 100 µM	> 100 µM	> 100 µM	> 100 µM	> 100 µM	> 100 µM	> 100 µM	> 100 µM	> 100 µM	> 100 µM	> 100 µM	> 100 µM	> 100 µM		> 100 µM
O=C(CC(=O)C(F)(F)C(F)(F)F)C(F)(F)F [3H,3H-Perfluoro-2,4-hexanedione]	> 100 µM	> 100 µM		> 100 µM	> 100 µM	> 100 µM	> 100 µM	> 100 µM	> 100 µM	> 100 µM	> 100 µM	> 100 µM	> 100 µM	> 100 µM	> 100 µM	> 100 µM	> 100 µM	> 100 µM	> 100 µM	> 100 µM
O=S(=O)(O)CCC(F)(F)C(F)(F)C(F)(F)C(F)(F)F [4:2 Fluorotelomer sulfonic acid]	> 100 µM	> 100 µM	> 100 µM	> 100 µM	> 100 µM	> 100 µM	> 100 µM	> 100 µM	> 100 µM	> 100 µM	> 100 µM	> 100 µM	> 100 µM	> 100 µM	> 100 µM	> 100 µM	> 100 µM	> 100 µM	> 100 µM	
OCC(F)(F)C(F)(F)C(F)(F)F [Heptafluorobutanol]	> 100 µM		> 100 µM	> 100 µM	> 100 µM	> 100 µM	> 100 µM	> 100 µM	> 100 µM	> 100 µM	> 100 µM	> 100 µM	> 100 µM	> 100 µM	> 100 µM	> 100 µM	> 100 µM	> 100 µM		
OCC(F)(F)C(F)(F)C(F)(F)CO [Hexafluoroamylene_glycol]	> 100 µM		> 100 µM	> 100 µM	> 100 µM	> 100 µM	> 100 µM	> 100 µM	> 100 µM	> 100 µM	> 100 µM	> 100 µM	> 100 µM	> 100 µM	> 100 µM	> 100 µM	> 100 µM	> 100 µM		
CN(CCO)S(=O)(=O)C(F)(F)C(F)(F)C(F)(F)C(F)(F)C(F)(F)C(F)(F)C(F)(F)C(F)(F)F [N-Methyl-N-(2-hydroxyethyl)perfluorooctanesulfonamide]	> 100 µM	> 100 µM	> 100 µM	> 100 µM	> 100 µM	0.199 µM			> 100 µM	> 100 µM	> 100 µM	> 100 µM	> 100 µM	> 100 µM	> 100 µM	> 100 µM	> 100 µM		> 100 µM	> 100 µM
NC(=O)C(F)(F)C(F)(F)C(F)(F)C(F)(F)F [Nonafluoropentanamide]	> 100 µM	0.612 µM		> 100 µM	> 100 µM	> 100 µM	> 100 µM	> 100 µM	> 100 µM	> 100 µM	> 100 µM	> 100 µM	> 100 µM	> 100 µM	> 100 µM	> 100 µM	> 100 µM	> 100 µM	> 100 µM	> 100 µM
O=C(O)C(F)(F)C(F)(F)C(F)(F)C(F)(F)C(=O)O [Octafluoroadipic_acid]	> 100 µM	> 100 µM		> 100 µM	> 100 µM	> 100 µM	> 100 µM	> 100 µM	> 100 µM	> 100 µM	> 100 µM	> 100 µM	> 100 µM	> 100 µM	> 100 µM	> 100 µM	> 100 µM	> 100 µM	> 100 µM	> 100 µM
O=C(O)C(F)(F)OC(F)(F)C(F)(F)OC(F)(F)F [Perfluoro-3,6-dioxaheptanoic_acid]	> 100 µM		> 100 µM	> 100 µM	> 100 µM	> 100 µM	> 100 µM	> 100 µM	> 100 µM	> 100 µM	> 100 µM	> 100 µM	> 100 µM	> 100 µM	> 100 µM	> 100 µM	> 100 µM	> 100 µM		
O=C(O)C(F)(F)OC(F)(F)C(F)(F)OC(F)(F)C(=O)O [Perfluoro-3,6-dioxaoctane-1,8-dioic_acid]	> 100 µM	> 100 µM		36 µM	> 100 µM	> 100 µM	68.4 µM	> 100 µM	28 µM	> 100 µM	> 100 µM	> 100 µM	> 100 µM	> 100 µM	> 100 µM	> 100 µM	> 100 µM	> 100 µM	> 100 µM	> 100 µM
O=C(O)C(F)(F)C(F)(F)C(F)(F)OC(F)(C(F)(F)F)C(F)(F)F [Perfluoro-4-isopropoxybutanoic_acid]	> 100 µM	> 100 µM		> 100 µM	> 100 µM	> 100 µM	> 100 µM	> 100 µM	> 100 µM	> 100 µM	> 100 µM	> 100 µM	> 100 µM	> 100 µM	> 100 µM	> 100 µM	> 100 µM	> 100 µM	> 100 µM	> 100 µM
O=S(=O)(O)C(F)(F)C(F)(F)C(F)(F)C(F)(F)F [Perfluorobutanesulfonic_acid]	> 100 µM	> 100 µM	> 100 µM	> 100 µM	> 100 µM	> 100 µM	> 100 µM	> 100 µM	> 100 µM	> 100 µM	> 100 µM	> 100 µM	> 100 µM	> 100 µM	> 100 µM	> 100 µM		> 100 µM	39.7 µM	
O=C(O)C(F)(F)C(F)(F)C(F)(F)C(F)(F)C(F)(F)C(F)(F)C(F)(F)C(F)(F)F [Perfluorononanoic_acid]	> 100 µM		> 100 µM	> 100 µM	> 100 µM	> 100 µM	> 100 µM	> 100 µM	> 100 µM	> 100 µM	> 100 µM	> 100 µM	> 100 µM	> 100 µM	> 100 µM	> 100 µM	> 100 µM	> 100 µM		
O=S(=O)([O-])C(F)(F)C(F)(F)C(F)(F)C(F)(F)F.[K+] [Potassium_perfluorobutanesulfonate]	> 100 µM	> 100 µM		> 100 µM	> 100 µM	> 100 µM	> 100 µM	> 100 µM	> 100 µM	> 100 µM	> 100 µM	> 100 µM	> 100 µM	> 100 µM	> 100 µM	> 100 µM	> 100 µM	> 100 µM	> 100 µM	> 100 µM
